Data on two compounds can be found in patent publication US7232813B2, “Neutral endopeptidase (NEP) and human soluble endopeptidase (hSEP) inhibitors for prophylaxis and treatment of neuro-degenerative disorders” (Solvay Pharmaceuticals B.V., priority 2004, dated 2007).

The structures appear in SMILES notation.

Experiment [1] has as its system traumatic brain injury; CA3 hippocampus neurons. Kind of experiment: Traumatic brain injury model (delayed neuronal death), i.c.v. administration. The following applies: for Effect of treatment on neuronal loss in the CA3 hippocampus (ANOVA): 10 μg i.c.v.; for Neuroprotective effect with delayed administration: administered i.c.v. up to 8 hrs after trauma; for Effect on hippocampal neuronal loss: injection of 10 μg into the right cerebral ventricle; for Neuroprotective effect in the traumatic brain injury model: result in words; for Neuronal densities CA3 hippocampus: traumatized right side, 10 μg i.c.v. 15 min after trauma, 3 days after injury, mean ± SD. The class given is in vivo, Wistar rats. The method, then:
(§1) Contusing device. The contusing device consisted of a stainless steel tube, 40 cm in length, perforated at 1 cm intervals to prevent air compression in the tube. Wistar rats, 230–270 g, were anesthetized with chloral hydrate, 400 mg/kg i.p., a craniotomy over the right hemisphere was made, the device guiding a falling weight onto the footplate resting upon the surface of the dura was placed perpendicular to the surface of the skull, and a force of 380 g×cm produced by a 20 g weight was selected to produce brain contusion. A maximum of 2.5 mm depression of the brain surface was allowed to avoid mechanical puncture of the dura. The center of the footplate was stereotaxically positioned 1.5 mm posterior and 2.5 mm lateral to the bregma. The rats underwent perfusion fixation 3 days after brain injury with a solution containing 4% paraformaldehyde in phosphate buffer.
Intracerebroventricular (i.c.v.) injections: Compounds were administered i.c.v. by means of a Hamilton syringe in a volume of 5–15 μl. Injections were performed over 5 min, 15 min−8 hrs after trauma using the following stereotaxic coordinates: AP=−0.5 mm, L=−2 mm and V=−5.5 in relation to bregma (Swanson, L. W. (1992) Brain Maps: Structure of the Rat Brain, Elsevier, Amsterdam).
(§2) Morphometric analysis in hippocampus. The damage in the hippocampal CA3 subfield was determined stereologically at 5 different rostrocaudal levels extending from 10.21 to 11.21 mm (Swanson, L. W. (1992) Brain Maps: Structure of the Rat Brain, Elsevier, Amsterdam) and throughout its mediolateral axis three days after traumatic injury. To quantitatively assess neuronal loss in the hippocampus, stereological disector technique (Cruz-Orive, L. M. & Weibel, E. R. (1990) Am. J. Physiol. 258, L148–L156) was used to estimate numerical density (NV) of pyramidal neurons. An unbiased counting frame (0.05 mm×0.05 mm; disector height 0.01 mm) and a high-aperture objective (×40) were used for sampling. Normal neurons were identified by the presence of the typical nuclei with clear nucleoplasm and distinct nucleolus surrounded by cytoplasm containing Nissl substance. The border between CA2 and CA3 subfields was considered as the point where the looser arrangement of large pyramidal cells goes into densely packed pyramidal cells of the subfield CA3. An arbitrary line connecting the lateral ends of the dentate granule cell layers was considered a junction between subfields CA3 and CA4.
Dose responses of the neuroprotective effect of the compounds with the formulae 6 and 7 when administered i.c.v. 15 min after trauma to adult Wistar rats were measured. Neuronal densities were determined in the CA3 hippocampal subfield as described in the methods. Densities of CA3 neurons±Standard Deviation (=SED) in 6 stereotactic levels in the left non-traumatized side of vehicle treated rats and the traumatized right side of vehicle treated rats and in rats treated with the compounds with the formulae 6 and 7 were measured and the results listed in table 1 below. In all of the following tables the numbers (“n”) indicate the number of rats per group, where applicable.

Experiment [2] shares this test system. As to the kind of experiment: Traumatic brain injury model (delayed neuronal death), i.v. administration. The note with it: for Neuronal densities CA3 hippocampus, i.v. administration: mean ± SD. The experiment is classed as in vivo, Wistar rats. The method, then: as §1
Intravenous injections: Compounds were administered i.v. using a 1 ml syringe attached to a 26 gauge needle. The needle was inserted into the left femoral vein following a small skin incision. Compounds were administered in a volume of 1 ml/kg body weight over 30 sec.
as §2
(P<0.001; n=8 per group).

For `O=C(O)CN1C(=O)[C@@H](NC(=O)C2(C[C@@H](CCc3ccccc3)C(=O)O)CCCC2)CCc2ccccc21` [Formula 6, (2R)-2-{[1-({[(3S)-1-(carboxymethyl)-2-oxo-2,3,4,5-tetrahydro-1H-1-benzaepin-3-yl]amino}carbonyl)cyclopentyl]methyl}-4-phenylbutanoic acid], in experiment [1], the “Effect of treatment on neuronal loss in the CA3 hippocampus (ANOVA)” value was “significant protective effect”. For the same compound, the “Neuroprotective effect with delayed administration” value in experiment [1] is given as “still evident”. Moreover, in experiment [1], the “Effect on hippocampal neuronal loss” value is “partially prevented hippocampal neuronal loss”. The “Neuroprotective effect in the traumatic brain injury model” value in experiment [1] is reported as “dose-dependent neuroprotective effects”. For the same compound, the “Neuronal densities CA3 hippocampus” value in experiment [1] (stereotactic level 10.21) came out at 112.5 ± 11.40 cells × 10^3/mm^3; in experiment [1] (stereotactic level 10.41), 103.75 ± 11.80 cells × 10^3/mm^3; in experiment [1] (stereotactic level 10.61) it was 101.75 ± 14.80 cells × 10^3/mm^3; in experiment [1] (stereotactic level 10.81), 98.50 ± 10.68 cells × 10^3/mm^3; in experiment [1] (stereotactic level 11.01), 96.75 ± 13.98 cells × 10^3/mm^3; in experiment [1] (stereotactic level 11.21) it was 101.75 ± 15.17 cells × 10^3/mm^3.
`O=C(O)CN1C(=O)[C@@H](NC(=O)C2(C[C@@H](CCc3cccc4ccccc34)C(=O)O)CCCC2)CCc2ccccc21` [Formula 7, (2R)-2-{[1-({[(3S)-1-(carboxymethyl)-2-oxo-2,3,4,5-tetrahydro-1H-1-benzazepin-3-yl]amino)carbonyl)cyclopentyl]methyl}-4-(1-naphthyl)butanoic acid]: the “Effect of treatment on neuronal loss in the CA3 hippocampus (ANOVA)” value is “significant protective effect” in experiment [1]; “significant protective effect” in experiment [2] (both tested doses (30 and 300 mg/kg i.v.), P<0.001, n=8 per group). Besides, in experiment [1], the “Neuroprotective effect with delayed administration” value is on record as “still evident”. Also, the “Effect on hippocampal neuronal loss” value in experiment [1] and in experiment [2] (injection of 30 or 300 mg/kg i.v.) was “partially prevented hippocampal neuronal loss” throughout. Also, the “Neuroprotective effect in the traumatic brain injury model” value in experiment [1] was “dose-dependent neuroprotective effects”. In addition, the “Neuronal densities CA3 hippocampus” value in experiment [1] (stereotactic level 10.21) is reported as 107.25 ± 15.19 cells × 10^3/mm^3; in experiment [1] (stereotactic level 10.41), 100.25 ± 14.71 cells × 10^3/mm^3; in experiment [1] (stereotactic level 10.61) it was 93.50 ± 16.96 cells × 10^3/mm^3; in experiment [1] (stereotactic level 10.81) it was 93.50 ± 12.36 cells × 10^3/mm^3; in experiment [1] (stereotactic level 11.01) it was 101.50 ± 18.81 cells × 10^3/mm^3; in experiment [1] (stereotactic level 11.21), 107.75 ± 16.51 cells × 10^3/mm^3. In addition, the “Neuroprotection of 300 mg/kg compared with 30 mg/kg (ANOVA)” value in experiment [2] (i.v., 300 mg/kg vs 30 mg/kg) was “significantly better neuroprotection”. In addition, the “Neuronal densities CA3 hippocampus, i.v. administration” value in experiment [2] (stereotactic level 10.21, 30 mg/kg i.v.) is reported as 107.50 ± 6.99 cells × 10^3/mm^3; in experiment [2] (stereotactic level 10.21, 300 mg/kg i.v.), 126.50 ± 5.53 cells × 10^3/mm^3; in experiment [2] (stereotactic level 10.41, 30 mg/kg i.v.) it was 102.25 ± 7.89 cells × 10^3/mm^3; in experiment [2] (stereotactic level 10.41, 300 mg/kg i.v.) it was 117.75 ± 4.95 cells × 10^3/mm^3; in experiment [2] (stereotactic level 10.61, 30 mg/kg i.v.), 100.75 ± 9.91 cells × 10^3/mm^3; in experiment [2] (stereotactic level 10.61, 300 mg/kg i.v.), 110.00 ± 7.01 cells × 10^3/mm^3. Also, the “Neuronal densities CA3 hippocampus, i.v. administration” value was determined as 101.75 ± 9.65 cells × 10^3/mm^3 in experiment [2] (stereotactic level 10.81, 30 mg/kg i.v.); 106.75 ± 7.48 cells × 10^3/mm^3 in experiment [2] (stereotactic level 10.81, 300 mg/kg i.v.); 111.25 ± 7.55 cells × 10^3/mm^3 in experiment [2] (stereotactic level 11.01, 30 mg/kg i.v.); 116.50 ± 9.06 cells × 10^3/mm^3 in experiment [2] (stereotactic level 11.01, 300 mg/kg i.v.); 117.75 ± 10.11 cells × 10^3/mm^3 in experiment [2] (stereotactic level 11.21, 30 mg/kg i.v.); 125.25 ± 5.01 cells × 10^3/mm^3 in experiment [2] (stereotactic level 11.21, 300 mg/kg i.v.).
